For this test, the system named is HepG2 viability, CellTiter-Glo ATP luminescence, 72 h. Kind of test: HepG2 cell cytotoxicity, dose response, cytotoxicity control, CellTiter-Glo luminescence, cherry-pick, set 2 (AID 743395). In general terms: In ATP-based viability assays light output follows the ATP content of the culture.

Where “and” joins values, the source holds several entries; their conditions need not be identical. Identical values can stand only once.

In the case of `O=C(N/N=C/c1c(O)ccc2ccccc12)c1ccc(CO)nc1`, the AC35 was 5.89 µM.

Take `CCOC(=O)c1c(NC(=O)C2c3ccccc3Oc3ccccc32)sc(C(C)=O)c1C`: the AC35 was 17.6 µM.

As to `COc1ccc([N+](=O)[O-])cc1Nc1c2ccccc2nc2ccccc12`, the AC35 was 18.4 µM.

Take `CCN1/C(=C/c2ccc3cc(C)cc(C)c3[n+]2CC)Sc2cc(C)ccc21`: the AC35 is 0.908 µM.

As to `Cc1ccc(/C=N/NC(=O)c2ccc3ccccc3c2)s1`, the AC35 is 9.16 µM.

As to `CC(C)(C)c1ccc(OCC(=O)Nc2ccc3c4c(cccc24)C(=O)NC3=O)cc1`, the AC35 was 18.5 µM.

In the case of `C[C@@H]1CN([C@@H](C)CO)C(=O)c2cc(NS(=O)(=O)c3ccc(Cl)cc3)ccc2O[C@@H]1CN(C)Cc1ccc(C(F)(F)F)cc1`, the AC35 is 16.4 µM.

Turning to `Cc1ccc(Nc2nc(-c3sc(C)nc3C)cs2)cc1`, the AC35 was 3.7 µM.

For the compound `CN1C(=CC=C2C=C(I)C(=O)C(I)=C2)C(C)(C)c2ccccc21`, the AC35 is 3.56 µM.

Regarding `Cc1ccc(C)c(CSc2nc3[nH]ncc3c(=O)[nH]2)c1`, the AC35 was 5.46 µM.

On to `C[C@H]1CN([C@@H](C)CO)C(=O)Cc2cc(NC(=O)Nc3ccc(C(F)(F)F)cc3)ccc2O[C@H]1CN(C)S(=O)(=O)c1ccccc1`, for which the AC35 is 10.1 µM.

In the case of `O=C(NCCOc1ccccc1)c1cc([N+](=O)[O-])ccc1N1CCOCC1`, the AC35 was 6.79 µM.

For the compound `CC(=NNC(=O)c1ccncc1)c1ccc2ccccc2c1O`, the AC35 was 2.59 µM.

`Cc1ccc2[nH]c(-c3ccccc3)cc(=O)c2c1`: the AC35 is 5.6 µM.

`Cc1ccccc1-c1nc(CS(=O)(=O)CC(=O)NCc2ccccc2)c(C)o1`: the AC35 was 18.4 µM.

Turning to `CCc1nc(N)nc(N)c1-c1ccc(Cl)c([N+](=O)[O-])c1`, the AC35 is 0.276 µM.

As for `C[C@@H]1CCCCO[C@H](CN(C)Cc2ccc(Cl)c(Cl)c2)[C@@H](C)CN([C@@H](C)CO)C(=O)c2cc(NS(=O)(=O)c3ccc(Cl)cc3)ccc2O1`, the AC35 was 10.6 µM.

With `CC(=O)NC(c1ccc2ccccc2c1)c1ccc2cccnc2c1O` (stereo unspecified), the AC35 is 0.641 µM.

In the case of `COc1cc(OC)cc(-c2nc3ccccc3c(=O)n2OC(=O)c2ccc(C)c(C)c2)c1`, the AC35 was 21.5 µM.

Consider `CO[C@@]12[C@@H]3N[C@@H]3CN1C1=C(C(=O)C(N)=C(C)C1=O)[C@@H]2COC(N)=O`, for which the AC35 was 9.61 µM.

`COC(=O)CSC1=C(C#N)C(c2ccc(C)o2)CC(=O)N1` (stereo unspecified): the AC35 is 19.1 µM.

For `COc1ccccc1Nc1nc(-c2sc(NC(=O)C(C)(C)C)nc2C)cs1`, the AC35 is 15.7 µM.

`COc1ccc(S(=O)(=O)Nc2cc3c(cc2C(C)=O)OCO3)cc1`: the AC35 was 12.9 µM.

Take `CC(=O)c1cccc(-c2ccnc3c2CC(C(=O)NCc2ccco2)O3)c1` (stereo unspecified): the AC35 was 6.09 µM.

Regarding `CCCC(=O)NC(NC(=S)Nc1ccc(N=Nc2ccccc2)cc1)C(Cl)(Cl)Cl` (stereo unspecified), the AC35 is 5.73 µM.

For `COC(=O)C1=CN(c2ccc(OC)cc2OC)C(N)=C(C#N)C1c1ccccc1F` (stereo unspecified), the AC35 is 6.17 µM.

Turning to `C#C[C@]1(O)CC[C@H]2[C@@H]3CCc4cc(OC5CCCC5)ccc4[C@H]3CC[C@@]21C`, the AC35 is 21 µM.

For the compound `CCN(Cc1ccccc1)c1ccc(/C=N/N=C(N)N)cc1`, the AC35 was 6.82 µM.

With `CC(=O)Oc1c(C)cc(Cl)cc1C(=O)Nc1ccc([N+](=O)[O-])cc1Cl`, the AC35 was 0.712 µM.

Consider `CN(CC1CCCO1)S(=O)(=O)c1ccc(C(=O)Nc2nnc(-c3ccccc3)o2)cc1` (stereo unspecified), for which the AC35 is 9.86 µM.

As for `C[C@H]1CN([C@@H](C)CO)C(=O)c2cccc(NC(=O)Nc3ccc(C(F)(F)F)cc3)c2O[C@H]1CN(C)C(=O)NC1CCCCC1`, the AC35 is 11.2 µM.

Turning to `COc1cc2c(-c3ccccc3)c(C)oc2cc1/C=N/NC(N)=S`, the AC35 is 6.29 µM.

In the case of `COc1c(O)cc2c(c1OC)-c1ccc(OC)c(=O)cc1C(NC(C)=O)CC2` (stereo unspecified), the AC35 was 0.453 µM.

Turning to `COc1ccc(COc2cc(-c3cccc(OC)c3)nc3ccc(NC(=O)c4ccc(OC)cc4)cc23)cc1`, the AC35 is 7.56 µM.

As for `CC1=Nc2cc(C(=O)NCC3CCCO3)ccc2Sc2ccc(Br)cc21` (stereo unspecified), the AC35 was 19.4 µM.

On to `CCOC(=O)c1ccc(-c2c(-c3cc(OC)c(OC)c(OC)c3)noc2C)cc1F`, for which the AC35 was 5.6 µM.

Regarding `O=C1c2ccccc2C(=O)c2c1cccc2N1CCCC1`, the AC35 is 18.9 µM.

Consider `O=C(c1cccc(F)c1)N1CC(=O)N2[C@@H](CO)[C@@H](c3ccc(C#Cc4ccc(F)cc4)cc3)[C@@H]2C1`, for which the AC35 is 17.9 µM.

As for `CCCCN1C(=O)CC(C(=O)OCC)=C1C`, the AC35 is 22 µM.

Regarding `O=C(C1CCCCC1)N1CC(=O)N2[C@@H](CO)[C@H](c3ccc(C#Cc4cccc(F)c4)cc3)[C@@H]2C1`, the AC35 was 16.4 µM.

For the compound `CC(C)Nc1ccc(Nc2ccnc3cc4ccccc4cc23)cc1`, the AC35 was 2.44 µM.

Consider `CC(C)Oc1ncnc2c1[nH]c1ccccc12`, for which the AC35 was 8.5 µM.

`CCc1ccc(N2CC(C(=O)Nc3ccccc3N3CCCC3)CC2=O)cc1` (stereo unspecified): the AC35 was 10.8 µM.

Regarding `C#Cc1cc(N2CCN(C(=O)c3ccoc3)CC2)n2nc(-c3cccc(Cl)c3)cc2n1`, the AC35 is 7.94 µM.

With `COc1cccc2c1C(=O)c1c(O)c3c(c(O)c1C2=O)CC(O)(C(C)=O)CC3OC1CC(N(C)C)C(O)C(C)O1` (stereo unspecified), the AC35 was 0.0849 µM.

Turning to `COc1ccc(NC(=O)c2nc(C)c(C3(C)CC(c4cccnc4)=NO3)s2)cc1` (stereo unspecified), the AC35 was 13.9 µM.

With `Cc1ccnc2c1ccc1cccnc12`, the AC35 was 2.98 µM.

In the case of `O=S(=O)(Nc1cc(Sc2cccc3cccnc23)c(O)c2ccccc12)c1ccccc1`, the AC35 was 7.49 µM.

As for `CC[n+]1c(-c2ccccc2)c2cc(N)ccc2c2ccc(N)cc21`, the AC35 was 21.5 µM.

On to `O=C1C=CCC(/C=C/c2ccccc2)O1` (stereo unspecified), for which the AC35 is 19 µM.

In the case of `Nc1ccn(C2OC(CO)C(O)C2O)c(=O)n1` (stereo unspecified), the AC35 was 6.2 µM.

For the compound `CC(C)Cc1ccc(-c2cc3nc(NCc4cccc(Cl)c4)ccn3n2)cc1`, the AC35 was 11.1 µM.

Regarding `CCCC#Cc1ccc([C@H]2[C@@H](CO)N3CCCCN(S(=O)(=O)c4ccccc4C)C[C@H]23)cc1`, the AC35 is 8.96 µM.

For the compound `Cc1onc(-c2ccccc2Cl)c1C(=O)N1CCN(c2cccc(Cl)c2)CC1`, the AC35 is 13.5 µM.

Regarding `CC(C)C[C@H](NC(=O)c1nc[nH]c1C(=O)N1CCN(C(=O)OC(C)(C)C)CC1)C(=O)OC(C)(C)C`, the AC35 was 14.6 µM.

As to `C[C@@H]1CN([C@H](C)CO)C(=O)c2cc(NS(=O)(=O)c3ccc(Cl)cc3)ccc2O[C@@H]1CN(C)Cc1ccc(-c2ccccc2)cc1`, the AC35 is 16.8 µM.

As for `O=C(CCCN1CCC(O)(c2cccc(C(F)(F)F)c2)CC1)c1ccc(F)cc1`, the AC35 was 22.2 µM.

With `CC(=NNC(=S)N1CCCCC1)c1cccc(C)n1`, the AC35 is 15.6 µM.

Regarding `COc1ccc(C2c3ccc4ccccc4c3Oc3ncn(CCCO)c(=N)c32)cc1OC` (stereo unspecified), the AC35 was 18.7 µM.

Consider `Nc1c(C(=O)c2ccco2)oc2ccccc12`, for which the AC35 is 15.8 µM.

As to `COC(=O)c1cn(NC(=O)c2cc([N+](=O)[O-])ccc2F)c(=O)c2ccccc12`, the AC35 was 0.521 µM.

`C[n+]1c2cc(N)ccc2cc2ccc(N)cc21`: the AC35 was 1.17 µM and 2.2 µM.

As for `CCc1ccc(OCCNc2cc(N3CCNC(C)C3)ccc2[N+](=O)[O-])cc1` (stereo unspecified), the AC35 is 9.58 µM.

For the compound `Cc1ccc(-c2ccc3c(c2)O[C@@H](CN(C)Cc2ccccn2)[C@H](C)CN([C@H](C)CO)S3(=O)=O)cc1`, the AC35 is 15.3 µM.

In the case of `C[C@H]1CCC/C=C/[C@@H]2C[C@H](O)C[C@H]2[C@H](O)/C=C/C(=O)O1`, the AC35 was 0.115 µM.

Take `COC(=O)c1ccccc1-c1c2ccc(=N)cc-2oc2cc(N)ccc12`: the AC35 is 15.8 µM.

Turning to `C/C(=N\NC(=O)c1cc(-c2cccs2)nc2ccccc12)c1ccccn1`, the AC35 was 1.63 µM.

As for `CCN(CC)CCC(=O)Nc1cccc2c1C(=O)c1ccccc1C2=O`, the AC35 is 6.39 µM.

As to `N#CC1=C(N)Oc2cc(N)ccc2C1c1cccc(F)c1` (stereo unspecified), the AC35 is 6.38 µM.

Regarding `O=C1C=CC(O)(c2cc(=O)c3c(O)cc(O)cc3o2)C=C1`, the AC35 is 8.15 µM.

In the case of `Cc1cccc(N(C)C(=O)c2cc3c(=O)[nH]c4ccc(C)cc4c3s2)c1`, the AC35 was 4.26 µM.

For the compound `CCN(CC)C(=O)c1oc2ccc(S(=O)(=O)N3CC(C)CC(C)C3)cc2c1C` (stereo unspecified), the AC35 is 12.9 µM.

On to `CC1(S(=O)(=O)O)CC(=O)c2ccccc2C1=O` (stereo unspecified), for which the AC35 was 20.1 µM.

With `COc1ccc(C2CC(c3cccc(Br)c3)=NN2c2ccc(S(N)(=O)=O)cc2)cc1` (stereo unspecified), the AC35 was 18.1 µM.

As for `CCOC(=O)[C@]12CCCC=C1N(Cc1cccc3ccccc13)C(=O)[C@H](CC(=O)NCc1cccc(C(F)(F)F)c1)C2`, the AC35 is 9.99 µM.

Take `CCCNC(=O)c1ccc2c(=O)c(O)c(-c3cccc(Br)c3)[nH]c2c1`: the AC35 was 4.65 µM.

For `Cc1cnc(NC(=O)c2ccc3c(c2)OCCO3)s1`, the AC35 is 4.22 µM.

Take `COc1ccc2c3c(n(C)c2c1)[C@H](CO)N(C(=O)C1CC1)CC31CCN(Cc2cccc(F)c2)CC1`: the AC35 was 4.68 µM.

With `COc1ccc(OC)c(C(=O)Cn2nnc(-c3ccc(N4CCOCC4)cc3)n2)c1`, the AC35 was 16.6 µM.

As to `COc1cccc2c1C(=O)c1c(O)c3c(c(O)c1C2=O)CC(O)(C(=O)CO)CC3OC1CC(N(C)C)C(O)C(C)O1` (stereo unspecified), the AC35 was 0.0659 µM.

`O=C(NCCN1C(=O)S/C(=C\c2ccc(OC(F)F)cc2)C1=O)c1cnccn1`: the AC35 is 10.5 µM.

Regarding `COc1ccc(OC)c(Nc2nc(-c3sc(NC(=O)C(C)(C)C)nc3C)cs2)c1`, the AC35 was 9.87 µM.

As to `Cc1ccc(S(=O)(=O)NCCCNS(=O)(=O)c2ccc(C)cc2)cc1`, the AC35 was 20 µM.

Take `Cc1cc(C(=O)N/N=C/c2ccc(N(C)C)cc2)c2ccccc2n1`: the AC35 was 8.84 µM.

Take `COc1ccccc1NC(=S)NN=C(C)c1ccccn1`: the AC35 is 0.0927 µM.

Take `CC1=Nc2cc(C(=O)NCC3CCCO3)ccc2Sc2ccc(C)cc21` (stereo unspecified): the AC35 is 13.5 µM.

For `Cc1ccc(S(=O)(=O)Nc2ccc3c(c2)CC(=O)N([C@@H](C)CO)C[C@@H](C)[C@@H](CN(C)Cc2ccc(Cl)c(Cl)c2)O3)cc1`, the AC35 was 10.3 µM.

Regarding `O=C(Cc1ccc(Br)cc1)NCc1ccccc1`, the AC35 was 5.52 µM.

Take `O=C1/C(=C\c2ccc(O)cc2)SC(=S)N1Cc1ccccc1`: the AC35 was 17.3 µM.

On to `COc1cccc(/C=N/Nc2ncnc(Cl)c2N)c1O`, for which the AC35 is 2.15 µM.

As for `O=c1ccc2c(-c3ccccc3)c3ccc(O)cc3oc-2c1`, the AC35 was 17.8 µM.
